In test [1] the test system is age-related cognitive deficits. Conditions: H. P. Davis, et al (1983); cited from earlier work.
Test [2] addresses central muscarinic binding site. Conditions: radio-labeled quinuclidinyl benzilate (antagonist), rat cerebral cortex.
The target is the same in test [3]. The experiment in a line: RCMD screening assay (inhibition of radio-labeled cis-methyldioxolane binding, rat cerebral cortex tissue). As for the experimental part: Similarly, in the RCMD screening assay, described more fully by T. W. Vickeroy, et al, J. Pharmacol. Exp. Ther., 229 (3): 747 (1984), rat cerebral cortex tissue was treated with radio-labeled cis-methyldioxolane,a known muscarinic binding site agonist. The concentrations of test compounds required to inhibit 50% of the binding of this muscarinic agonist were then determined.

Test [4] concerns laboratory rats given scopolamine. The experiment in a line: SIS, scopolamine induced swimming test. In kind it is in vivo, rat. Conditions: for minimal effective dose: Rattus norvegicus, sc, Tables 3 and 4, Subcutaneous, five minute test period, read-out: Minimal Effective Dose for Reversal of Scopolamine-Induced Swimming Hyperactivity; for reversal of scopolamine-induced swimming hyperactivity: rats given scopolamine. As for the experimental part: In a second screening assay, designated SIS, the scopolamine induced swimming test, the ability of representative compounds of the present invention to reverse the hyperactive swimming behavior of laboratory rats given scopolamine was assessed. In this test, untreated rats will generally swim between 20 to 30 meters during a five minute test period. […] This swimming hyperactivity can be reversed by administration of physostigmine or the cholinergic agonist, arecoline. The effect of scopolamine is centrally mediated; the ability of a test compound to reverse the hyperactive swimming behavior induced by scopolamine is thus a measure of the central cholinergic activity of the compound.

Test [5] deals with patients clinically diagnosed as having presenile primary degenerative dementia. To be noted: double blind study, Christie, et al (1981); cited from earlier work.
Test [6] deals with Aged humans and nonhuman primates with decreased cognition. Conditions: acetylcholinesterase inhibitor treatment; cited from earlier work.
The mark [7] stands for this setting: Table 1, radio-labeled cis-methyldioxolane (agonist).
Where [8] appears, read: Table 2, radio-labeled cis-methyldioxolane (agonist).

Like-named read-outs stand apart in the source and are kept apart here.

`Nc1ccncc1N` [3,4-diaminopyridine]: in test [1], the “effect on age-related cognitive deficits” value is recorded as “ameliorate age-related cognitive deficits”.
Take `CCC(=NOC)C1=CCCNC1` [Example 2, 1-(1,2,5,6-Tetrahydro-3-pyridinyl)-1-propanone, O-Methyloxime]: the IC50 is 9500 nM in test [2] (Table 1) and 290 nM in test [3] (setting [7]).
Regarding `CON=CC1=CCCN(C)C1` [Example 3, 1,2,5,6-Tetrahydro-1-methyl-3-pyridinecarboxaldehyde O-Methyloxime], the IC50 in test [2] (Table 1) came out at 1800 nM; in test [3] (setting [7]) it was 2 nM. Moreover, the minimal effective dose in test [4] (scopolamine 0.1 mg/kg, rats) turned out to be 3.2 mg/kg.
As to `CON=CC1=CCCNC1` [Example 4, 1,2,5,6-Tetrahydro-3-pyridinecarboxaldehyde, O-Methyl oxime], the IC50 in test [2] (Table 1) came out at 7100 nM; in test [3] (setting [7]), 10 nM. Moreover, the minimal effective dose in test [4] (scopolamine 0.1 mg/kg, rats) stood at 3.2 mg/kg.
As for `CCON=CC1=CCCN(C)C1` [Example 6, 1,2,5,6-Tetrahydro-1-methyl-3-pyridinecarboxaldehyde, O-Ethyloxime], the half-inhibitory concentration (IC50) is 10000 nM in test [2] (Table 1) and 28 nM in test [3] (setting [7]).
Regarding `CCON=CC1=CCCNC1` [Example 7, 1,2,5,6-Tetrahydro-3-pyridinecarboxaldehyde, O-ethyloxime], the IC50 in test [2] (Table 1) was 1000 nM; in test [3] (setting [7]), 42 nM.
On to `CON=C(C)C1=CCCNC1` [Example 8, 1-(1,2,5,6-Tetrahydro-3-pyridinyl)ethanone, O-methyloxime], for which the results for the IC50 in test [2] (Table 1) and in test [3] (setting [7]) were 5800 nM and 28 nM, respectively.
Turning to `CON=C(C)C1=CCNCC1` [Example 13, 1-(1,2,3,6-Tetrahydro-4-pyridinyl)ethanone, O-Methyloxime], the minimal effective dose in test [4] (scopolamine 0.1 mg/kg, rats) turned out to be 10 mg/kg.
As to `CON=CC1=CCN(C)CC1` [Example 14, 1,2,3,6-Tetrahydro-1-methyl-4-pyridinecarboxaldehyde, O-Methyloxime], the IC50 in test [2] (Table 2) was over 1 nM; in test [3] (setting [8]), over 0.1 nM. The minimal effective dose in test [4] (scopolamine 0.1 mg/kg, rats) came to 32 mg/kg.
Regarding `CON=CC1=CCNCC1` [Example 15, 1,2,3,6-Tetrahydro-4-pyridinecarboxaldehyde, O-Methyloxime], the half-maximal inhibitory concentration (IC50) in test [2] (Table 2) was under 1 nM; in test [3] (setting [8]), over 0.1 nM.
On to `COC(=O)C1=CCCN(C)C1` [arecoline, methyl ester of 1,2,5,6-tetrahydro-1-methyl-3-pyridinecarboxylic acid, reference compound], for which, in test [5], the “improvement in a test of picture recognition” value was “Significant improvement”. Besides, the “reversal of scopolamine-induced swimming hyperactivity” value in test [4] is “reversed”.
As to `CNC(=O)Oc1ccc2c(c1)[C@]1(C)CCN(C)[C@@H]1N2C` [physostigmine, reference compound], in test [6], the “memory in aged humans and nonhuman primates with decreased cognition” value is listed as “improved memory”. Also, the “reversal of scopolamine-induced swimming hyperactivity” value in test [4] is listed as “reversed”.
As for `CN1[C@@H]2C[C@@H](OC(=O)[C@H](CO)c3ccccc3)C[C@H]1[C@@H]1O[C@@H]12` [scopolamine, reference compound], in test [4] (scopolamine 0.1 mg/kg, rats), the “increase of swimming distance above baseline values” is recorded as 75-125%.

The record behind these values is patent publication US4786648A, “O-substituted tetrahydropyridine oxime cholinergic agents” (Warner-Lambert Company, priority 1987, dated 1988).
